Test results from patent US20080255162A1, “Pyrrolyl Substituted Pyrido[2,3-D]Pyrimidin-7-Ones and Derivatives Thereof as Therapeutic Agents” (WARNER-LAMBERT COMPANY LLC, priority 2004, published 2008).
pIC50: −log10 of the molar value.

The molecules below were run against T1, PI3Kγ (purified recombinant p101/p110γ protein) (Homo sapiens, UniProt P48736) (assay: PI3Kγ In Vitro Kinase Assay). Conditions: final ATP 20 μM, 25 μM PIP2, G protein β1/γ2 subunits, 20 minutes at room temperature.
T1 construct: HA; made in house; host or cells: Spodoptera frugiperda Sf9 cells (baculovirus co-infection)
T1 sequence (P48736 whole entry, species assumed): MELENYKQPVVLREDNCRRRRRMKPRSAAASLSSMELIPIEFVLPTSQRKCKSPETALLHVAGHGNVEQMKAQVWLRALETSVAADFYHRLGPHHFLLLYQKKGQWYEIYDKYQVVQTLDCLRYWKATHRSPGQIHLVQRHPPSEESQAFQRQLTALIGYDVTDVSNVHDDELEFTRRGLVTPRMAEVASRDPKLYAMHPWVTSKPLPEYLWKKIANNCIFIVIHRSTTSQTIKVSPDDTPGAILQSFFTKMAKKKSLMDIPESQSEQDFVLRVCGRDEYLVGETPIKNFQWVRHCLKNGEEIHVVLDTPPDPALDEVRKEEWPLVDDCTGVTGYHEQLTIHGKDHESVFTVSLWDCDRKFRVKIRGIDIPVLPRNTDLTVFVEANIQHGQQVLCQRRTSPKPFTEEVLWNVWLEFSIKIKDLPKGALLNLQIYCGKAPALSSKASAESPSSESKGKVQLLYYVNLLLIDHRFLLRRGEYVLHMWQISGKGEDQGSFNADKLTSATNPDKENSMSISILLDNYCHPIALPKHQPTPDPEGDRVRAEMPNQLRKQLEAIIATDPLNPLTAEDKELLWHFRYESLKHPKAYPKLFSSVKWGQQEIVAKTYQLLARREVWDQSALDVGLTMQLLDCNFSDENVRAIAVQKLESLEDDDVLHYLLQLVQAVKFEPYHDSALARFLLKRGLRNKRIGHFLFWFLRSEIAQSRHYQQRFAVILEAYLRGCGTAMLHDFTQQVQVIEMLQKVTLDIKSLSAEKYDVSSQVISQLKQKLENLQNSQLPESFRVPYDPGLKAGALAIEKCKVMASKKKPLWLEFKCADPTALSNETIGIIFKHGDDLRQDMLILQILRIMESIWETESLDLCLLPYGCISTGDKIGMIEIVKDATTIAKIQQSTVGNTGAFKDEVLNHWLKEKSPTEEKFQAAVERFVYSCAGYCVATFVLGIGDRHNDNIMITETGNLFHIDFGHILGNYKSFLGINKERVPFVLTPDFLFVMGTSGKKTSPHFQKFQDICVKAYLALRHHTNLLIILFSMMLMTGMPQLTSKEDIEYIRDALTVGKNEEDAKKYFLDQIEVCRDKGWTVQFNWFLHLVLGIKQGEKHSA
T1 sequence (Q8WYR1 whole entry partner, species assumed): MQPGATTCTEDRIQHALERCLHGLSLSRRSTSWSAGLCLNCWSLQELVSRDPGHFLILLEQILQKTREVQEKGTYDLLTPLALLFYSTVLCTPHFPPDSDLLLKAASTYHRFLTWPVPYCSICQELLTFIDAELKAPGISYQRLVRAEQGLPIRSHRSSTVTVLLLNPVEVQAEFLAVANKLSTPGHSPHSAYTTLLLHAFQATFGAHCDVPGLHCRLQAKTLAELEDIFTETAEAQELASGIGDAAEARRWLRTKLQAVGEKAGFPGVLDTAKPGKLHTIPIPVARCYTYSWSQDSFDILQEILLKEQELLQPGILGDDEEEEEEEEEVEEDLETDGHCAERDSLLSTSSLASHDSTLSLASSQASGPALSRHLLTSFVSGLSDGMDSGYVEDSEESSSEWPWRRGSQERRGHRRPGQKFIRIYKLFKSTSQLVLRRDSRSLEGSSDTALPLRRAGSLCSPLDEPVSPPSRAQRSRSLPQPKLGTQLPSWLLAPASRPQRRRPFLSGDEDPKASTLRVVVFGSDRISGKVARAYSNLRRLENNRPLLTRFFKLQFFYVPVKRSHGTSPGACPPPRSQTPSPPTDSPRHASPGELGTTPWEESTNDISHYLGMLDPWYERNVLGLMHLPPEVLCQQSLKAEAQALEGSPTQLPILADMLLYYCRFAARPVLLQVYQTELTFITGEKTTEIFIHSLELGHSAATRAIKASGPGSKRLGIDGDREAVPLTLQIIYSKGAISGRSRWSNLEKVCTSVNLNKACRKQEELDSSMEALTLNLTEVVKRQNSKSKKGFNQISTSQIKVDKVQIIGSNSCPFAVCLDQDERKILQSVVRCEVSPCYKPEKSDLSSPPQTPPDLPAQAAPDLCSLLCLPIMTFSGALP
Type: biochemical
Method: Spodtera frugiperda cells, grown in ESF921 media, were co-infected with baculovirus expressing a glu-tagged p101 and baculovirus expressing an HA-tagged p110γ, at a 3:1 ratio of p101 baculovirus to p110γ baculovirus. Sf9 cells were grown to 1×10^7 total cells/mL in 10 L bioreactors and harvested 48-72 hours post infection. Samples of infected cells were then tested for expression of p101/p110γ PI3 kinase by immunoprecipitation and Western Blot analysis methods (see below).
To purify PI3Kγ, 4 volumes of room temperature hypotonic lysis buffer (1 mM MgCl2, 1 mM DTT, 5 mM EGTA, 1 mM Pefabloc, 0.5 μM aprotinin, 5 μM leupeptin, 2 μM pepstatin, 5 μM E64, pH 8) per gram of cell paste, was poured onto frozen cell pellets with stirring, then lysed in a nitrogen “bomb” at 400 psi (599HC T316, Parr Instrument Co, Moline, Ill.). NaCl was added to 150 mM, and sodium cholate was added to 1% and mixed for another 45 minutes. The lysates were clarified by centrifugation for 25 minutes at 14,000 rpm. The lysates were then loaded over anti-glu-linked Protein-G Sepaharose beads (Covance Research Products, Richmond, Calif.) using 20 mL resin/50 g cell paste. The column was washed with 15 volumes of wash buffer (1 mM DTT, 0.2 mM EGTA, 1 mM Pefabloc, 0.5 μM aprotinin, 5 μM leupeptin, 2 μM pepstatin, 5 μM E64, 150 mM NaCl, 1% sodium cholate, pH 8). PI3Kγ was eluted with 6 column volumes of wash buffer that contain 100 μg/mL of a peptide that competes for binding of the glu tag. The column fractions with the eluted protein (determined by taking OD280 readings) were collected and dialyzed in 0.2 mM EGTA, 1 mM DTT, 1 mM Pefabloc, 5 μM leupeptin, 0.5% sodium cholate, 150 mM NaCl, and 50% glycerol, pH 8. The fractions were stored at −80° C. until further use.
Spodtera frugiperda cells were coinfected with baculovirus expressing a glu-tagged G protein β1 and baculovirus expressing a G protein β2, at a 1:1 ratio of glu-tagged G protein β1 baculovirus to G protein β2 baculovirus. Sf9 cells are grown in 10 L bioreactors and harvested 48-72 hours post infection. Samples of infected cells were tested for G protein β1/β2 expression by Western Blot analysis, as described below. Cell lysates were homogenized and loaded onto a column of glu-tagged beads as in Biological Example 1 and competed off the column with a glu peptide and processed as described in Biological Example 1.
The inhibitory properties of the compounds in Table 1 were assayed in an in vitro PI3K assay. In a 96-well polypropylene plate, each well was spotted with 2 μL of 50 times the desired final concentration of compound in DMSO. Purified recombinant p101/p110γ protein (0.03 μg; ˜2.7 nM) and G protein β1/γ2 subunits (0.09 μg; ˜57.7 nM) for each reaction was combined in the assay buffer (30 mM HEPES, 100 mM NaCl, 1 mM EGTA, and 1 mM DTT). ATP and [γ-^32P-ATP] (0.09 μCi) were added to this mixture so that the final ATP concentration in the reaction was 20 μM. Lipid micelles were formed by sonicating phosphatidylinositol-4,5-diphosphate (PIP2), phosphatidylethanolamine (PE), and Na-cholate in the assay buffer for 10 minutes, adding MgCl2 and incubating on ice for 20 minutes, for final concentrations of 25 μM PIP2, 300 μM PE, 0.02% Na-cholate, and 10 mM MgCl2 in the reaction. The reactions were started by adding equal volumes lipid and enzyme mixture in a total volume of 50 μL, allowed to run for 20 minutes at room temperature, and stopped with 100 μL 75 mM H3PO4. The lipid product was transferred to a glass fiber filter plate and washed with 75 mM H3PO4 several times. The presence of radioactive lipid product (PIP3) was measured by adding Wallac Optiphase mix to each well and counting in a Wallac 1450 Trilux plate reader (PerkinElmer Life Sciences Inc., Boston, Mass. 02118). The IC50 for each compound tested is reported in μM in the Table 2: […]
`Cc1nc(Nc2cc(C(=O)O)n(C)c2)nc2c1ccc(=O)n2C1CC1` [Example 18, 4-(8-Cyclopropyl-4-methyl-7-oxo-7,8-dihydro-pyrido[2,3-d]pyrimidin-2-ylamino)-1-methyl-1H-pyrrole-2-carboxylic acid] gave a pIC50 of 6.73.
With `CCc1nc(Nc2cc(C(=O)O)n(C)c2)nc2c1ccc(=O)n2C1CCCCCC1` [Example 20, 4-(8-Cycloheptyl-4-ethyl-7-oxo-7,8-dihydro-pyrido[2,3-d]pyrimidin-2-ylamino)-1-methyl-1H-pyrrole-2-carboxylic acid] the pIC50 was 5.80.
`Cc1nc(Nc2cc(C(=O)O)n(C)c2)nc2c1cc(-c1cccc(OCc3ccccc3)c1)c(=O)n2Cc1ccc(F)cc1` [Example 35, 4-[6-(3-Benzyloxy-phenyl)-8-(4-fluoro-benzyl)-4-methyl-7-oxo-7,8-dihydro-pyrido[2,3-d]pyrimidin-2-ylamino]-1-methyl-1H-pyrrole-2-carboxylic acid] gave a pIC50 of 6.47.
`COC(=O)c1cc(Nc2nc(C)c3cc(F)c(=O)n(C4CCC(OC)CC4)c3n2)cn1C` (stereo not shown) [Example 11, 4-[6-Fluoro-8-(4-methoxy-cyclohexyl)-4-methyl-7-oxo-7,8-dihydro-pyrido[2,3-d]pyrimidin-2-ylamino]-1-methyl-1H-pyrrole-2-carboxylic acid methyl ester] gave a pIC50 of 8.30.
With `COc1ccc(Cn2c(=O)c(C)cc3c(C)nc(Nc4cc(C(=O)O)n(C)c4)nc32)cc1` [Example 36, 4-[8-(4-Methoxy-benzyl)-4,6-dimethyl-7-oxo-7,8-dihydro-pyrido[2,3-d]pyrimidin-2-ylamino]-1-methyl-1H-pyrrole-2-carboxylic acid] the pIC50 was 7.33.
In the case of `COC(=O)c1cc(Nc2nc(C)c3cc(F)c(=O)n(C4CCCC4)c3n2)cn1C` [Example 9, 4-(8-Cyclopentyl-6-fluoro-4-methyl-7-oxo-7,8-dihydro-pyrido[2,3-d]pyrimidin-2-ylamino)-1-methyl-1H-pyrrole-2-carboxylic acid methyl ester], the pIC50 was 7.92.
`CCc1nc(Nc2cc(C(=O)OC)n(C)c2)nc2c1ccc(=O)n2C1CCCCCC1` [Example 14, 4-(8-Cycloheptyl-4-ethyl-7-oxo-7,8-dihydro-pyrido[2,3-d]pyrimidin-2-ylamino)-1-methyl-1H-pyrrole-2-carboxylic acid methyl ester] showed a pIC50 of 5.84.
With `CCOC(=O)c1cc(Nc2nc(C)c3cc(F)c(=O)n(C4CCCC4)c3n2)cn1C(C)c1ccccc1` (stereo not shown) [Example 13, 4-(8-Cyclopentyl-6-fluoro-4-methyl-7-oxo-7,8-dihydro-pyrido[2,3-d]pyrimidin-2-ylamino)-1-(1-phenyl-ethyl)-1H-pyrrole-2-carboxylic acid ethyl ester] the pIC50 was 6.80.
Molecule `Cc1nc(Nc2cc(C(=O)O)n(C)c2)nc2c1ccc(=O)n2C1CCCCC1` [Example 38, 4-[8-Cyclohexyl-4-methyl-7-oxo-7,8-dihydro-pyrido[2,3-d]pyrimidin-2-ylamino]-1-methyl-1H-pyrrole-2-carboxylic acid] has a pIC50 of 7.68.
`CCOC(=O)c1cc(Nc2nc(C)c3cc(F)c(=O)n(C4CCCC4)c3n2)cn1Cc1cccnc1` [Example 12, 4-(8-Cyclopentyl-6-fluoro-4-methyl-7-oxo-7,8-dihydro-pyrido[2,3-d]pyrimidin-2-ylamino)-1-pyridin-3-ylmethyl-1H-pyrrole-2-carboxylic acid ethyl ester] gave a pIC50 of 8.40.
`Cc1nc(Nc2cc(C(=O)O)n(C(C)C)c2)nc2c1ccc(=O)n2C1CCCCCC1` [Example 22, 4-(8-Cycloheptyl-4-methyl-7-oxo-7,8-dihydro-pyrido[2,3-d]pyrimidin-2-ylamino)-1-isopropyl-1H-pyrrole-2-carboxylic acid] was tested, and the pIC50 was 7.46.
Molecule `Cc1nc(Nc2cc(C(=O)O)n(C)c2)nc2c1cc(F)c(=O)n2CC1CCOCC1` [Example 26, 4-[6-Fluoro-4-methyl-7-oxo-8-(tetrahydro-pyran-4-ylmethyl)-7,8-dihydro-pyrido[2,3-d]pyrimidin-2-ylamino]-1-methyl-1H-pyrrole-2-carboxylic acid] has a pIC50 of 7.60.
`COC(=O)c1cc(Nc2nc(C)c3ccc(=O)n(C4CCC4)c3n2)cn1C` [Example 4, 4-(8-Cyclobutyl-4-methyl-7-oxo-7,8-dihydro-pyrido[2,3-d]pyrimidin-2-ylamino)-1-methyl-1H-pyrrole-2-carboxylic acid methyl ester] was tested, and the pIC50 was 7.89.
`COCCn1c(=O)c(Br)cc2c(C)nc(Nc3cc(C(=O)O)n(C)c3)nc21` [Example 32, 4-[6-Bromo-8-(2-methoxy-ethyl)-4-methyl-7-oxo-7,8-dihydro-pyrido[2,3-d]pyrimidin-2-ylamino]-1-methyl-1H-pyrrole-2-carboxylic acid] showed a pIC50 of 8.30.
`COC(=O)c1cc(Nc2nc(C)c3ccc(=O)n(C4CCCCCC4)c3n2)cn1C` [Example 1, 4-(8-Cycloheptyl-4-methyl-7-oxo-7,8-dihydro-pyrido[2,3-d]pyrimidin-2-ylamino)-1-methyl-1H-pyrrole-2-carboxylic acid methyl ester] was tested, and the pIC50 was 7.60.
With `COc1ccc(Cn2c(=O)c(Br)cc3c(C)nc(Nc4cc(C(=O)O)n(C)c4)nc32)cc1` [Example 33, 4-[6-Bromo-8-(4-methoxy-benzyl)-4-methyl-7-oxo-7,8-dihydro-pyrido[2,3-d]pyrimidin-2-ylamino]-1-methyl-1H-pyrrole-2-carboxylic acid] the pIC50 was 7.77.
In the case of `COC(=O)c1cc(Nc2nc(C)c3ccc(=O)n(C4CCCCC4)c3n2)cn1C` [Example 6, 4-(8-Cyclohexyl-4-methyl-7-oxo-7,8-dihydro-pyrido[2,3-d]pyrimidin-2-ylamino)-1-methyl-1H-pyrrole-2-carboxylic acid methyl ester], the pIC50 was 8.40.
With `Cc1nc(Nc2cc(C(=O)O)n(C(C)c3ccccc3)c2)nc2c1cc(F)c(=O)n2C1CCCC1` (stereo not shown) [Example 28, 4-(8-Cyclopentyl-6-fluoro-4-methyl-7-oxo-7,8-dihydro-pyrido[2,3-d]pyrimidin-2-ylamino)-1-(1-phenyl-ethyl)-1H-pyrrole-2-carboxylic acid] the pIC50 was 7.82.
For `COC(=O)c1cc(Nc2nc(C)c3cc(F)c(=O)n(CC4CCOCC4)c3n2)cn1C` [Example 10, 4-[6-Fluoro-4-methyl-7-oxo-8-(tetrahydro-pyran-4-ylmethyl)-7,8-dihydro-pyrido[2,3-d]pyrimidin-2-ylamino]-1-methyl-1H-pyrrole-2-carboxylic acid methyl ester], the pIC50 was 8.10.
`CCOC(=O)c1cc(Nc2nc(C)c3ccc(=O)n(C)c3n2)cn1C(C)c1ccccc1` (stereo not shown) [Example 2, 4-(4,8-Dimethyl-7-oxo-7,8-dihydro-pyrido[2,3-d]pyrimidin-2-ylamino)-1-(1-phenyl-ethyl)-1H-pyrrole-2-carboxylic acid ethyl ester] was tested, and the pIC50 was 7.20.
`Cc1nc(Nc2ccn(CC(=O)O)c2)nc2c1ccc(=O)n2C1CCCCCC1` [Example 23, [3-(8-Cycloheptyl-4-methyl-7-oxo-7,8-dihydro-pyrido[2,3-d]pyrimidin-2-ylamino)-pyrrol-1-yl]-acetic acid] was tested, and the pIC50 was 5.96.
Molecule `COCCn1c(=O)c(-c2cccc(OCc3ccccc3)c2)cc2c(C)nc(Nc3cc(C(=O)OC)n(C)c3)nc21` [Example 34, 4-[6-(3-Benzyloxy-phenyl)-8-(2-methoxy-ethyl)-4-methyl-7-oxo-7,8-dihydro-pyrido[2,3-d]pyrimidin-2-ylamino]-1-methyl-1H-pyrrole-2-carboxylic acid methyl ester] has a pIC50 of 6.52.
